Test results reported in US9481654B2, “Compositions and methods for inhibition of the JAK pathway” (Rigel Pharmaceuticals, Inc., priority 2006, dated 2016).

Key:
[1] = tested on: IFNγ induced ICAM-1 (CD54) up-regulation in A549 lung epithelial cells (JAK/Stat pathway); assay: A549 Epithelial Line Stimulated with IFNγ (ICAM-1 surface expression, flow cytometry); type: cell-based, human; conditions: Table III Example 5
How it was run: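 A549 cells (20,000/well, adhered overnight) pre-treated with compound 1 h, then IFNγ 75 ng/mL for 24 h; compound 30 μM–14 nM in 5% FBS, 0.3% DMSO. Surface ICAM-1 stained with APC anti-CD54, geometric mean by flow cytometry; dose-response gives EC50.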

[2] = tested on: IFNγ induced ICAM-1 (CD54) up-regulation in U937 human monocytic cells (JAK/Stat pathway); assay: U937 IFNγ ICAM1 FACS Assay; type: cell-based; conditions: Table III Example 6; 10 ng/mL IFNγ, 18-24 hours
How it was run: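 Flow cytometry gave ICAM-1 (CD54) up-regulation as ICAM-APC geometric mean within the live-cell gate, alongside % viable cells. Human monocytic U937 cells received 3-fold serial compound dilutions for 30 min at 37 °C, followed by IFNγ stimulation lasting 18–24 h. Dose curves yielded EC50s.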

SMILES	IC50 [1]	IC50 [2]
CCC(=O)N(Cc1cccc(Nc2nc(Nc3cccc(S(N)(=O)=O)c3)ncc2C)c1)S(=O)(=O)C1CC1 [Compound I-116, N2-(3-aminosulfonyl)phenyl-N4-[3-(N-cyclopropylsulfonyl-N-propionyl)aminomethyl]phenyl-5-methyl-2,4-pyrimidinediamine]	1.83 µM	178 nM
Cc1ccc(Nc2ncc(C)c(Nc3ccc(CNS(=O)(=O)C(C)C)cc3)n2)cc1S(N)(=O)=O [Compound I-117, N2-(3-aminosulfonyl-4-methyl)phenyl-N4-(4-isopropylsulfonylaminomethyl)phenyl-5-methyl-2,4-pyrimidinediamine]	2.17 µM	60.1 nM
Cc1cnc(Nc2cccc(S(N)(=O)=O)c2)nc1Nc1ccc(CNS(=O)(=O)C(C)C)cc1 [Compound I-118, N2-(3-aminosulfonyl)phenyl-N4-(4-isopropylsulfonylaminomethyl)phenyl-5-methyl-2,4-pyrimidinediamine]	2.48 µM	218 nM
Cc1cnc(Nc2cccc(S(N)(=O)=O)c2)nc1Nc1ccc(CNS(=O)(=O)C2CC2)c(Cl)c1 [Compound I-119, N2-(3-aminosulfonyl)phenyl-N4-(3-chloro-4-cyclopropylsulfonylaminomethyl)phenyl-5-methyl-2,4-pyrimidinediamine]	4.42 µM	535 nM
Cc1cnc(Nc2cccc(S(N)(=O)=O)c2)nc1Nc1cccc(CN(C)S(=O)(=O)C2CC2)c1 [Compound I-120, N2-(3-aminosulfonyl)phenyl-N4-[3-(N-cyclopropylsulfonyl-N-methyl)aminomethyl]phenyl-5-methyl-2,4-pyrimidinediamine]	2.54 µM	98.4 nM
Cc1cnc(Nc2cccc(S(N)(=O)=O)c2)nc1Nc1ccc(CN(C)S(=O)(=O)C2CC2)cc1 [Compound I-121, N2-(3-aminosulfonyl)phenyl-N4-[4-(N-cyclopropylsulfonyl-N-methyl)aminomethyl]phenyl-5-methyl-2,4-pyrimidinediamine]	36.5 µM	231 nM
Cc1cnc(Nc2ccc(S(N)(=O)=O)cc2)nc1Nc1ccc(CNS(=O)(=O)C(C)C)cc1 [Compound I-123, N2-(4-aminosulfonyl)phenyl-N4-(4-isopropylsulfonylaminomethyl)phenyl-5-methyl-2,4-pyrimidinediamine]	19 µM	164 nM
Cc1cnc(Nc2ccc(S(N)(=O)=O)cc2)nc1Nc1cccc(CN(C)S(=O)(=O)C2CC2)c1 [Compound I-124, N2-(4-aminosulfonyl)phenyl-N4-[3-(N-cyclopropylsulfonyl-N-methyl)aminomethyl]phenyl-5-methyl-2,4-pyrimidinediamine]	5.72 µM	373 nM
Cc1ccc(Nc2ncc(C)c(Nc3ccc(CNS(=O)(=O)C4CC4)c(Cl)c3)n2)cc1S(N)(=O)=O [Compound I-125, N2-(3-aminosulfonyl-4-methyl)phenyl-N4-(3-chloro-4-cyclopropylsulfonylaminomethyl)phenyl-5-methyl-2,4-pyrimidinediamine]	4.03 µM	389 nM
Cc1ccc(Nc2ncc(C)c(Nc3ccc(CN(C)S(=O)(=O)C4CC4)cc3)n2)cc1S(N)(=O)=O [Compound I-126, N2-(3-aminosulfonyl-4-methyl)phenyl-N4-[4-(N-cyclopropylsulfonyl-N-methyl)aminomethyl]phenyl-5-methyl-2,4-pyrimidinediamine]	5.56 µM	224 nM
Cc1cnc(Nc2cccc(S(=O)(=O)NCc3ccccc3)c2)nc1Nc1ccc(CNS(=O)(=O)C2CC2)cc1 [Compound I-154, N2-(3-benzylaminosulfonyl)phenyl-N4-(4-cyclopropylsulfonylaminomethyl)phenyl-5-methyl-2,4-pyrimidinediamine]	6.35 µM	184 nM
CNS(=O)(=O)c1cccc(Nc2ncc(C)c(Nc3ccc(CNS(=O)(=O)C4CC4)cc3)n2)c1 [Compound I-161, N4-(4-cyclopropylsulfonylaminomethyl)phenyl-5-methyl-N2-(3-methylaminosulfonyl)phenyl-2,4-pyrimidinediamine]	24.4 µM	51 nM
CNS(=O)(=O)c1cccc(Nc2ncc(C)c(Nc3cccc(CNS(=O)(=O)C4CC4)c3)n2)c1 [Compound I-162, N4-(3-cyclopropylsulfonylaminomethyl)phenyl-5-methyl-N2-(3-methylaminosulfonyl)phenyl-2,4-pyrimidinediamine]	1.92 µM	155 nM
C#CCNS(=O)(=O)c1ccc(Nc2ncc(C)c(Nc3ccc(CNS(=O)(=O)C4CC4)cc3)n2)cc1 [Compound I-164, N4-(4-cyclopropylsulfonylaminomethyl)phenyl-5-methyl-N2-(4-propargylaminosulfonyl)phenyl-2,4-pyrimidinediamine]	13.8 µM	160 nM
C#CCNS(=O)(=O)c1cccc(Nc2ncc(C)c(Nc3ccc(CNS(=O)(=O)C4CC4)cc3)n2)c1 [Compound I-165, N4-(4-cyclopropylsulfonylaminomethyl)phenyl-5-methyl-N2-(3-propargylaminosulfonyl)phenyl-2,4-pyrimidinediamine]	8.97 µM	150 nM
Cc1cnc(Nc2cccc(S(=O)(=O)NC(C)C)c2)nc1Nc1ccc(CNS(=O)(=O)C2CC2)cc1 [Compound I-173, N4-(4-cyclopropylsulfonylaminomethyl)phenyl-N2-(3-isopropylaminosulfonyl)phenyl-5-methyl-2,4-pyrimidinediamine]	1.88 µM	109 nM
CCNS(=O)(=O)c1ccc(Nc2ncc(C)c(Nc3ccc(CNS(=O)(=O)C4CC4)cc3)n2)cc1 [Compound I-175, N4-(4-cyclopropylsulfonylaminomethyl)phenyl-N2-(4-ethylaminosulfonyl)phenyl-5-methyl-2,4-pyrimidinediamine]	2.37 µM	72.3 nM
CCNS(=O)(=O)c1cccc(Nc2ncc(C)c(Nc3ccc(CNS(=O)(=O)C4CC4)cc3)n2)c1 [Compound I-176, N4-(4-cyclopropylsulfonylaminomethyl)phenyl-N2-(3-ethylaminosulfonyl)phenyl-5-methyl-2,4-pyrimidinediamine]	10.4 µM	48.4 nM
CCCNS(=O)(=O)c1cccc(Nc2ncc(C)c(Nc3ccc(CNS(=O)(=O)C4CC4)cc3)n2)c1 [Compound I-178, N4-(4-cyclopropylsulfonylaminomethyl)phenyl-5-methyl-N2-(3-propylaminosulfonyl)phenyl-2,4-pyrimidinediamine]	5.45 µM	57.7 nM
Cc1cnc(Nc2cccc(S(=O)(=O)NCC3CC3)c2)nc1Nc1ccc(CNS(=O)(=O)C2CC2)cc1 [Compound I-180, N2-(3-cyclopropylmethylaminosulfonyl)phenyl-N4-(4-cyclopropylsulfonylaminomethyl)phenyl-5-methyl-2,4-pyrimidinediamine]	2.22 µM	62.2 nM
COCCCNS(=O)(=O)c1ccc(Nc2ncc(C)c(Nc3ccc(CNS(=O)(=O)C4CC4)cc3)n2)cc1 [Compound I-181, N4-(4-cyclopropylsulfonylaminomethyl)phenyl-N2-[4-(3-methoxypropyl)aminosulfonyl]phenyl-5-methyl-2,4-pyrimidinediamine]	2.35 µM	243 nM
COCCCNS(=O)(=O)c1cccc(Nc2ncc(C)c(Nc3ccc(CNS(=O)(=O)C4CC4)cc3)n2)c1 [Compound I-182, N4-(4-cyclopropylsulfonylaminomethyl)phenyl-N2-[3-(3-methoxypropyl)aminosulfonyl]phenyl-5-methyl-2,4-pyrimidinediamine]	2.25 µM	103 nM
COCCNS(=O)(=O)c1cccc(Nc2ncc(C)c(Nc3ccc(CNS(=O)(=O)C4CC4)cc3)n2)c1 [Compound I-184, N4-(4-cyclopropylsulfonylaminomethyl)phenyl-N2-[3-(2-methoxyethyl)aminosulfonyl]phenyl-5-methyl-2,4-pyrimidinediamine]	1.41 µM	97.8 nM
CNS(=O)(=O)c1cc(Nc2ncc(C)c(Nc3ccc(CNS(=O)(=O)C4CC4)cc3)n2)ccc1C [Compound I-185, N4-(4-cyclopropylsulfonylaminomethyl)phenyl-5-methyl-N2-(4-methyl-3-methylaminosulfonyl)phenyl-2,4-pyrimidinediamine]	4.1 µM	85.3 nM
CCNS(=O)(=O)c1cc(Nc2ncc(C)c(Nc3ccc(CNS(=O)(=O)C4CC4)cc3)n2)ccc1C [Compound I-186, N4-(4-cyclopropylsulfonylaminomethyl)phenyl-N2-(3-ethylaminosulfonyl-4-methyl)phenyl-5-methyl-2,4-pyrimidinediamine]	1.76 µM	73 nM
CCCNS(=O)(=O)c1cc(Nc2ncc(C)c(Nc3ccc(CNS(=O)(=O)C4CC4)cc3)n2)ccc1C [Compound I-187, N4-(4-cyclopropylsulfonylaminomethyl)phenyl-5-methyl-N2-(4-methyl-3-propylaminosulfonyl)phenyl-2,4-pyrimidinediamine]	2.42 µM	174 nM
C#CCNS(=O)(=O)c1cc(Nc2ncc(C)c(Nc3ccc(CNS(=O)(=O)C4CC4)cc3)n2)ccc1C [Compound I-188, N4-(4-cyclopropylsulfonylaminomethyl)phenyl-5-methyl-N2-(4-methyl-3-propargylaminosulfonyl)phenyl-2,4-pyrimidinediamine]	5.08 µM	193 nM
Cc1ccc(Nc2ncc(C)c(Nc3ccc(CNS(=O)(=O)C4CC4)cc3)n2)cc1S(=O)(=O)NC(C)C [Compound I-189, N4-(4-cyclopropylsulfonylaminomethyl)phenyl-N2-(3-isopropylaminosulfonyl-4-methyl)phenyl-5-methyl-2,4-pyrimidinediamine]	1.72 µM	153 nM
